Patent US20150025077A1 (COYOTE PHARMACEUTICALS, INC., priority 2012, published 2015)

Experiments:
[1] = system: SOD1 mice; test: CatWalk gait analysis in SOD1 mice; type: in vivo, mouse; set-up: Hind stride length, Mean/average: unit not given beside the values
Text: Prior to onset, there was little to no difference between the transgenic and wildtype groups. Transgenic animals tended to rely more on front paws for movement as weakness and paralysis in the hind paws progressed. This began to show around timepoint P100, coinciding with the expected onset of disease. This impairment was seen through changes in front and hind paw step cycle, print area, mean intensity, and base of support.

[2] = system: Sprague-Dawley rats; test: Kainic acid induced neurodegeneration and seizure behaviors in rats (Examples 20, 21); type: in vivo, rat; details: oral, Kainic acid
Text: Seizure behaviors were observed and scored (Ref. R. J. Racine, Modification of seizure activity by electrical stimulation: II. Motor seizure, Electroencephalogr. Clin. […] Modifications were made for the methods). Brain tissues of rats were sectioned on histology slides, and neurons in hippocampus tissues were stained by Nissl. Neurons in dentate gyrus tissues damaged by Kainic acid were quantified. The Memantine composition used in comparison refers to a commercially available NMDA receptor […]. […] Seizure behaviors were observed and scored (Ref. R. J. Racine, Modification of seizure activity by electrical stimulation: II. Motor seizure, Electroencephalogr. Clin. […] Modifications were made for the methods). Brain tissues of rats were sectioned on histology slides, and neurons in hippocampus tissues were stained by Nissl. Neurons damaged by Kainic acid and behavior scores were quantified.

| Compound | Run Duration, Mean/average ([1]; P-42, SOD1/Vehicle 1.484746201) | Hind stride length, Mean/average ([1]; P-42, SOD1/Vehicle 6.359471205) | Swing speed, Mean/average ([1]; P-42, SOD1/Vehicle 45.8515272) | Run Duration, Mean/average ([1]; P-124 (+/−) 3, SOD1/Vehicle 3.461605345) | Hind stride length, Mean/average ([1]; P-124 (+/−) 3, SOD1/Vehicle 3.607909383) | Swing speed, Mean/average ([1]; P-124 (+/−) 3, SOD1/Vehicle 23.93413455) | Hippocampus dentate gyrus neurons damaged ([2]; vehicle 20.9) | Seizure behaviors scores ([2]; vehicle 34) |
| --- | --- | --- | --- | --- | --- | --- | --- | --- |
| Nc1nc2ccc(OC(F)(F)F)cc2s1 [Riluzole, reference compound] | 1.65 | 6.337 | 43.07 | 3.113 | 4.244 | 29.71 |  |  |
| CC12CC3CC(C)(C1)CC(N)(C3)C2 [Memantine, reference compound] |  |  |  |  |  |  | 3.53 Arbitrary units | 36.2 |
